Data published in patent US20250281462A1, “THERAPEUTICALLY EFFECTIVE ORAL ADMINISTRATION OF A 2 ARYLBENZIMIDAZOLE” (Tranquis Therapeutics, Inc., priority 2021, published 2025).
Several values for one entry are separate records, joined by “and”; a condition that tells them apart may be missing. Equal values may be shown once.

Experiments:
[1] = clinical; settings: male, human, in vivo, po; for half-life: T1/2
[2] = clinical; settings: male, human, in vivo, 120 mg

`CC(C)(C)c1ccc(-c2nc3cc(O)ccc3[nH]2)cc1` [TQS-621] gave an AUC(0-t) ([1]; 60 mg, AUC(0-24)) of 383 ng·h/mL, an AUC(0-inf) ([1]; 60 mg) of 410 ng·h/mL and an AUC(0-t) ([1]; 60 mg, AUC(0-last)) of 401 ng·h/mL. The Cmax ([1]; 60 mg) was 65.3 ng/mL and 250 nM, the half-life ([1]; 60 mg) was 4.89 h and the Tmax ([1]; 60 mg) was 2.5 h. The AUC(0-t) ([1]; 90 mg, AUC(0-24)) was 1170 ng·h/mL, the AUC(0-inf) ([1]; 90 mg) was 1200 ng·h/mL and the Cmax ([1]; 90 mg) was 214 ng/mL and 800 nM. The half-life ([1]; 180 mg) was 9.1 h, the Tmax ([1]; 180 mg) was 1.5 h and the AUC(0-t) ([1]; 270 mg, AUC(0-24)) was 4250 ng·h/mL. The AUC(0-inf) ([1]; 270 mg) was 4950 ng·h/mL, the AUC(0-t) ([1]; 270 mg, AUC(0-last)) was 4760 ng·h/mL and the Cmax ([1]; 270 mg) was 2330 nM. The half-life ([1]; 270 mg) was 10.4 h, the Tmax ([1]; 270 mg) was 2 h and the AUC(0-t) ([1]; 540 mg, AUC(0-24)) was 10800 ng·h/mL. The AUC(0-inf) ([1]; 540 mg) was 12700 ng·h/mL, the AUC(0-t) ([1]; 540 mg, AUC(0-last)) was 12000 ng·h/mL and the Cmax ([1]; 540 mg) was 1110 ng/mL and 4.17 µM. The half-life ([1]; 540 mg) was 11.3 h, the Tmax ([1]; 540 mg) was 4 h and the half-life [2] was 10.2 h. The AUC ([2]; AUC(0-tau)) was 2270 ng·h/mL, the Cmax ([2]; Cmax) was 331 ng/mL and 1.24 µM and the Tmax ([2]; Tmax) was 1.5 h. The Tmax ([2]; Tmax (median)) was 1.75 h and the Tmax ([2]; po, Tmax (median)) was 1.5 h.
